Where a name gives a salt, the structure may show the parent alone.
Tests used:
Format in all cases: cell-based
[1] = target: T1, human OAT7 (Homo sapiens, UniProt Q8IVM8); assay: inhibition of [3H]estrone-sulfate conjugate uptake by OAT7-expressing oocyte (substrate selectivity); conditions: [3H]estrone-sulfate conjugate 1 μM, 100 μM of unlabeled compound; FIGS. 8, 9, 10A and 10B
T1 construct: expressed in transfected cells
Protocol: (§1) A substrate uptake experiment was performed on the oocyte into which the human OAT7 gene cRNA was injected and a control oocyte into which water was injected, using the [^3H]estrone-sulfate conjugate and the [^3H]dehydroepiandrosterone-sulfate conjugate as the substrates in accordance with the method of Kanai et al. (Kanai and Hediger, Nature, Vol. 360, pp. 467 to 471, 1992) as described below. After leaving the oocyte in an ND96 solution (96 mM sodium chloride, 2 mM potassium chloride, 1.8 mM calcium chloride, 1 mM magnesium chloride, 5 mM HEPES, pH7.4) containing the [^3H]estrone-sulfate conjugate (50 nM) and the [^3H]dehydroepiandrosterone-sulfate conjugate (100 nM) as a substrate for 60 minutes, and an uptake ratio of the substrate was measured by way of counting radioactivity taken up into the cells.
In the [^3H]estrone-sulfate conjugate uptake experiment using an oocyte into which the human OAT7 gene cRNA was injected, the effect of addition of various organic anions and organic cations on the system was examined.
The [^3H]estrone-sulfate conjugate uptake experiment was conducted using the oocyte into which the human OAT7 gene cRNA was injected and in accordance with the method described in Example 2(1). In the experiment, [^3H]estrone-sulfate conjugate (1 μM) uptake was measured under the presence and the absence of 100 μM of various compounds (unlabeled).
Since OAT7 is the organic anion transporter existing in the liver, effects of various organic anions which are considered to be transported in the hepatic cells on the [^3H]estrone-sulfate conjugate uptake by way of OAT7 were examined.
In order to clarify which one of the sulfate conjugate, the glucuronide conjugate, the glutathione conjugate is accepted by OAT7, effects of various conjugate compounds on the [^3H]estrone-sulfate conjugate uptake were examined.

[2] = target: T1, human OAT7; assay: substrate uptake experiment by oocyte into which the human OAT7 gene cRNA was injected
Protocol: After expressing the human OAT7 gene cRNA in an oocyte, [^3H]estrone-sulfate conjugate uptake and [^3H]dehydroepiandrosterone-sulfate conjugate uptake were measured.
After injecting 20 ng of the human OAT7 gene cRNA into the oocyte to be expressed, a 3-days culture was performed.
as §1
Time passage of the substrate uptake by the oocyte into which the human OAT7 gene cRNA was injected and a control oocyte into which water was injected was observed using the [^3H]estrone-sulfate conjugate (50 nM) as the substrate and in accordance with the method of Example 2(1).
The effect of salt added in the culture used in the [^3H]estrone-sulfate conjugate (50 nM) uptake experiment were examined using an oocyte into which the human OAT7 gene cRNA was injected and a control oocyte into which water was injected.
The [^3H]estrone-sulfate conjugate uptake experiment was conducted in accordance with the method described in Example 2(1) using the oocyte into which the human OAT7 gene cRNA was injected. In the experiment, a sodium ion free absorption solution (wherein 96 mM sodium chloride was substituted with 96 mM choline chloride) was used as an uptake solution in place of the standard absorption solution for the purpose of observing the effect of the sodium ion.

[3] = target: T1, human OAT7; assay: Michaelis-Menten kinetics test on OAT7 (oocyte uptake); conditions: mean±standard error; OAT7-expressing oocyte; FIGS. 7A and 7B
Protocol: as §1
A Michaelis-Menten kinetics test on the liver specific organic anion transporter OAT7 selectively transporting a sulfate conjugate was conducted. The Michaelis-Menten kinetics test on OAT7 was performed by examining changes in uptake ratio of the substrate [^3H]estrone-sulfate conjugate and the [^3H]dehydroepiandrosterone-sulfate conjugate depending on the concentrations of the substrate [^3H]estrone-sulfate conjugate and the [^3H]dehydroepiandrosterone-sulfate conjugate. […]

T1 sequence (Q8IVM8 whole entry): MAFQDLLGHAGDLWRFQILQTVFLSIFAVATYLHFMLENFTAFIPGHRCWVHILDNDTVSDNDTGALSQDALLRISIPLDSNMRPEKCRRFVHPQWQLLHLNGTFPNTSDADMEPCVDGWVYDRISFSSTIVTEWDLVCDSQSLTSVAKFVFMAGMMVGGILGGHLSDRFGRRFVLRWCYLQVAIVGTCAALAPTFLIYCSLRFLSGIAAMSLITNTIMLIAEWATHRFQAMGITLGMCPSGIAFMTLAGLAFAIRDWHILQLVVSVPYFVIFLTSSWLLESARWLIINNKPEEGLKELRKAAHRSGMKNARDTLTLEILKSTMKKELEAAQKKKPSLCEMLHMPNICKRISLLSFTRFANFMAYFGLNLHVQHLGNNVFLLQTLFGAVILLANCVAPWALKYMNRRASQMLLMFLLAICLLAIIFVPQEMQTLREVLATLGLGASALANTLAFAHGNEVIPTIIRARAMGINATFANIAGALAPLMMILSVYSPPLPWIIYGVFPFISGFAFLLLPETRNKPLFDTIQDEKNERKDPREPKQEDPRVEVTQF

Cc1cc(=O)oc2cc(OS(=O)(=O)O)ccc12 [4-methylumbelliferyl sulfate conjugate]
cys-inhibition effect on [3H]estrone-sulfate conjugate uptake [1]: significant cys-inhibition effect

C[C@]12CC[C@H](OS(=O)(=O)O)CC1=CC[C@@H]1[C@@H]2CC[C@]2(C)C(=O)CC[C@@H]12 [dehydroepiandrosterone-sulfate conjugate]
[3H]dehydroepiandrosterone-sulfate conjugate uptake by oocytes in which OAT7 was expressed vs control oocyte into which water was injected ([2]; substrate 100 nM, ND96 solution pH7.4, 60 minutes, FIG. 6A): significantly greater
Km [3]: 2.2 ± 0.3 µM
cys-inhibition effect on [3H]estrone-sulfate conjugate uptake [1]: significant cys-inhibition effect

C[C@]12CC[C@@H]3c4ccc(OS(=O)(=O)O)cc4CC[C@H]3[C@@H]1CCC2=O [estrone-sulfate conjugate]
[3H]estrone-sulfate conjugate uptake by oocytes in which OAT7 was expressed vs control oocyte into which water was injected ([2]; substrate 50 nM, ND96 solution pH7.4, 60 minutes, FIG. 6A): significantly greater
effect of change of extracellular sodium to choline on uptake ([2]; substrate 50 nM, 96 mM sodium chloride substituted with 96 mM choline chloride, FIG. 6C): no effect
time dependency of uptake by way of OAT7 ([2]; substrate 50 nM, FIG. 6B): increases substantially linearly in a time dependent manner till the passage of 120 minutes
Km [3]: 8.7 ± 1.1 µM
cys-inhibition effect on [3H]estrone-sulfate conjugate uptake [1]: significant cys-inhibition effect

CC1(C)C(/C=C/C=C/C=C/C=C2\N(CCCCS(=O)(=O)[O-])c3ccc4ccccc4c3C2(C)C)=[N+](CCCCS(=O)(=O)[O-])c2ccc3ccccc3c21.[Na+] [indocyanin green]
cys-inhibition effect on [3H]estrone-sulfate conjugate uptake [1]: significant cys-inhibition effect

N=c1nc(N2CCCCC2)cc(N)n1OS(=O)(=O)O [minoxidil-sulfate conjugate]
cys-inhibition effect on [3H]estrone-sulfate conjugate uptake [1]: significant cys-inhibition effect

O=[N+]([O-])c1ccc(OS(=O)(=O)O)cc1 [p-nitrophenol-sulfate conjugate]
cys-inhibition effect on [3H]estrone-sulfate conjugate uptake [1]: significant cys-inhibition effect

O=C1OC(c2ccc(O)c(S(=O)(=O)O)c2)(c2ccc(O)c(S(=O)(=O)O)c2)c2c(Br)c(Br)c(Br)c(Br)c21 [sulfobromophthalein]
cys-inhibition effect on [3H]estrone-sulfate conjugate uptake [1]: significant cys-inhibition effect

C[C@]12CC[C@@H]3c4ccc(OS(=O)(=O)O)cc4CC[C@H]3[C@@H]1CC[C@@H]2O [β-estradiol-sulfate conjugate]
cys-inhibition effect on [3H]estrone-sulfate conjugate uptake [1]: significant cys-inhibition effect

Source: US20060051754A1, “Transporter selectively transporting sulfate conjugate and its gene” (Japan Science and Technology Agency, priority 2002, published 2006)
